According to article PMC12095047, “Transport of phenoxyacetic acid herbicides by PIN-FORMED auxin transporters” (Nature Plants, 2025):
Where “and” joins values, the source holds several entries; their conditions need not be identical. Equal values may be shown once. Read-outs that look alike come from different tables or passages of the source.

Assays:
[1] = tested on: A. thaliana stem segments of pin1 mutants; test: Arabidopsis stem transport assay, pin1 mutant; type: in vivo, Arabidopsis thaliana
Description: (§1) Arabidopsis stem transport assays were carried out as described. Briefly, 2 cm stem sections were cut above the rosette of 5-week-old plants and placed in inverted orientation into auxin transport buffer containing 500 pM IAA, 1% (wt/vol) sucrose, 5 mM 2-(N-morpholino)ethanesulfonic acid, pH 5.5 with or without 100 μM NPA. After 2 h the stems were transferred into auxin transport buffer containing 417 nM [^3H]-IAA or [^3H]-2,4-D as a substrate in the absence and presence of NPA. After 2 h, 5 mm segments were dissected, and the substrate was quantified using a liquid scintillation counter.

PIN8 S266A = biological target: T1, PIN8 S266A (Arabidopsis thaliana, UniProt Q9LFP6, S266A); type: biochemical; conditions: for Imax / EC50: PIN8 S266A, Michaelis–Menten fit; for EC50: read-out: EC50 of peak current response; for Peak current: S266A, individual sensors
T1 construct: made in house

PIN8 Y150F = biological target: T2, PIN8 Y150F (Arabidopsis thaliana, UniProt Q9LFP6, Y150F); type: biochemical; conditions: for Imax / EC50: PIN8 Y150F, Michaelis–Menten fit; for EC50: read-out: EC50 of peak current response
T2 construct: made in house

PIN8 [2] = biological target: T3, PIN8 (Arabidopsis thaliana, UniProt Q9LFP6); test: SSM electrophysiology, KD by inhibition of the NPA binding current; conditions: for inhibition at 250 µM: read-out: Rel. Inhibition of NPA peak currents, 250 µM substrate
T3 construct: made in house
T3 sequence (Q9LFP6 1-367): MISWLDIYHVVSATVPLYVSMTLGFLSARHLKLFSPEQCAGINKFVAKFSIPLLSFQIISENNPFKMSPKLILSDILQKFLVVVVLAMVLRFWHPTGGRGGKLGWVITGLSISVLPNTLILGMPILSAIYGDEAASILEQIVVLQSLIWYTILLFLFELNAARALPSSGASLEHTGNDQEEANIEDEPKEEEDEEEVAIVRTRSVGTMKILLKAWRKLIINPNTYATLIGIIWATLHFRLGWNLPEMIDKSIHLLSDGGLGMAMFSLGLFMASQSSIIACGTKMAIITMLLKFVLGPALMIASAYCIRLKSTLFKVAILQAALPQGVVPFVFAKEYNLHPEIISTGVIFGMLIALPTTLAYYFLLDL
Description: SSM, using a SURFE2R N1 from Nanion Technologies, was conducted as described. In brief, soy polar lipid mix (38% phosphatidyl choline, 30% phosphatidyl ethanolamine, 18% phosphatidyl inositol, 7% phosphatidic acid and 7% other soy lipids) and 1-palmitoyl-2-oleoyl-sn-glycero-3-phosphocholin were purchased from Avanti. Liposomes were prepared in Ringer solution without Ca^2+ (115 mM NaCl, 2.5 mM KCl, 1 mM NaHCO3, 10 mM HEPES pH7.4, 1 mM MgCl2) and homogenized using a Lipsofast (Avestin) with a […]. Triton X-100 was added to the liposomes to a final concentration of 1% (v/v). Protein was added to liposomes to a calculated lipid-to-protein ratio (LPR) of 10 unless stated otherwise. The detergent was removed using 400 mg ml^−1 Bio Beads (BioRad) overnight at 4 °C in a rotary shaker. Proteoliposomes were frozen in liquid nitrogen and kept at −80 °C until use. Proteoliposomes were diluted 1:5 in Ringer solution without Ca^2+, sonicated five times and then applied to the sensors by centrifugation (30 min, 3,000 g, 4 °C). Non-activating buffer was Ringer solution without Ca^2+ as described unless specified otherwise, and activating buffer contained the substrate of interest. In most instances we used a single-solution exchange experiment. In this case proteoliposomes, immobilized on the supported membrane, are kept in non-activating buffer as specified. At the beginning of the experiment the non-activating buffer is replaced with fresh identical non-activating buffer, and after 1 s, activating buffer (same buffer containing substrate) is added. After another second, the buffer is replaced with non-activating buffer again. Current response is recorded throughout the entire 3 s. For competition or inhibition, the respective compound was present in non-activating and activating solutions. Each experiment was performed on at least two individual sensors. On each sensor each measurement consists of three technical replicates where the mean is calculated. KD values were determined as described previously. Briefly, the binding current induced by 100 µM NPA was recorded in the presence of different concentrations of the substrate under investigation ranging between 0 µM and 1,000 µM present in the activating solution and the non-activating solution (Extended Data Fig. 5b). […] The maximum peak current was then plotted as a function of the concentration of the substrate under investigation and plotted against the degree of inhibition and fitted with a one-site binding model using GraphPad Prism V10.4.1 The half maximal concentration corresponds to the KD of the substrate under investigation.

PIN8 [3] = biological target: T3, PIN8; test: Xenopus oocyte efflux assay, PIN8; type: cell-based; conditions: for Rel. 2,4-D transport rate: [3H]-2,4-D export by PIN8 from oocytes; for Rel. 2,4-D transport rate / Rel. IAA transport rate: individual experiments; for Rel. IAA transport rate: [3H]-IAA export by PIN8 from oocytes
Description: Oocyte efflux experiments were carried out as described[12],[20],[26]. Briefly, oocytes were injected with 150 ng transporter complementary RNA without or with 75 ng kinase cRNA. [^3H]-IAA (25 Ci mmol^−1) and [^3H]-4-CPA (37.7 Ci mmol^−1) was purchased from RC Tritec. [^3H]-2,4-D (25 Ci mmol^−1) was purchased from ARC. Oocytes were injected with substrate to reach an internal concentration of 1 µM, corresponding to 100%. Residual radioactivity was determined for each individual oocyte by liquid scintillation counting after the time points indicated and are expressed relative to the initial 100%. Each time point represents the mean and s.e. of ten oocytes. To calculate the relative transport rate in percentage per minute, linear regression was performed. Each data point in Fig. 1b,c and Extended Data Fig. 2b,e represents the transport rate of one biological replicate using oocytes collected from different Xenopus females.

[4] = tested on: A. thaliana stem segments of wild type; test: Arabidopsis stem transport assay, Col-0 wild type; type: in vivo, Arabidopsis thaliana; conditions: for CPM: WT;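 on CPM: Segments numbered apical to basal with Segment 1 nearest the apical end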
Description: as §1

[5] = Peak current, sheet F2A (Fig. 2a, KD of substrate binding), individual sensors
[6] = read-out: Rel. Inhibition of NPA peak currents, 50 µM substrate, 100 µM NPA, individual sensors
[7] = read-out: Rel. Inhibition of NPA peak currents, 100 µM substrate, 100 µM NPA, individual sensors
[8] = read-out: Rel. Inhibition of NPA peak currents, 500 µM substrate, 100 µM NPA, individual sensors
[9] = read-out: Rel. Inhibition of NPA peak currents, 1000 µM substrate, 100 µM NPA, individual sensors

T2 sequence (Q9LFP6 whole entry Y150F): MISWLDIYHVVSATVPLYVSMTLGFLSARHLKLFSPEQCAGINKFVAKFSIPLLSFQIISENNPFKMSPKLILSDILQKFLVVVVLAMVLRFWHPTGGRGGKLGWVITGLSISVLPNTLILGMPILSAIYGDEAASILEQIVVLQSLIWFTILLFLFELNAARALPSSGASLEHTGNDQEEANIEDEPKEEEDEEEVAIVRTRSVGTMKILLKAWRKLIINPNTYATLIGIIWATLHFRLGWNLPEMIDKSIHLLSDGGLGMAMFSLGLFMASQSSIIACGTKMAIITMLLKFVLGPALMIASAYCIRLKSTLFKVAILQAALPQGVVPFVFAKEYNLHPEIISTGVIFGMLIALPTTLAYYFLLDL
T1 sequence (Q9LFP6 whole entry S266A): as the sequence (Q9LFP6 whole entry Y150F) above, with F150Y, S266A counted along it

O=C(O)COc1ccc(Cl)cc1Cl [2,4-D, 2,4-dichlorophenoxyacetic acid]
transport in stem segments ([1]; pin1 mutants): completely abolished
CPM ([1]; sheet EDF2I, pin1, + NPA, Segment 1, single stems): 52 CPM and 51 CPM and 42 CPM and 38 CPM
CPM ([1]; sheet EDF2I, pin1, + NPA, Segment 2, single stems): 52 CPM and 31 CPM and 27 CPM and 33 CPM
CPM ([1]; sheet EDF2I, pin1, - NPA, Segment 2, single stems): 18 CPM and 32 CPM and 22 CPM and 34 CPM and 25 CPM
Imax (PIN8 S266A): 12 ± 0.7 nA
EC50 (PIN8 S266A): 774 ± 70 µM
Imax (PIN8 Y150F): 8 ± 2 nA
EC50 (PIN8 Y150F): 816 ± 275 µM
Kd (PIN8 [2]; [5]): 64.4 µM and 50.6 µM and 62.3 µM
Kd (PIN8 [2]; inhibition of peak current elicited by 100 µM NPA, read-out: KD of substrate binding by PIN8): 59 ± 7 µM
inhibition at 20 µM (PIN8 [2]; read-out: Rel. Inhibition of NPA peak currents, 20 µM substrate, 100 µM NPA, individual sensors): 22.5%
inhibition at 50 µM (PIN8 [2]; [6]): 46.2%
inhibition at 100 µM (PIN8 [2]; [7]): 65.6%
inhibition at 250 µM (PIN8 [2]; 100 µM NPA, individual sensors): 83.2%
inhibition at 500 µM (PIN8 [2]; [8]): 91.1%
inhibition at 1000 µM (PIN8 [2]; [9]): 95.2%
transport rate of export from oocytes relative to IAA (PIN8 [3]; PIN8, NPA-sensitive export): about half of that determined for IAA
Rel. 2,4-D transport rate (PIN8 [3]; NPA + (10 μM)): 0.7325 % exported/min and 0.3331 % exported/min and 0.3715 % exported/min and 0.009798 % exported/min
Rel. 2,4-D transport rate (PIN8 [3]; NPA -): 1.122 % exported/min and 0.7012 % exported/min and 0.7258 % exported/min and 0.8004 % exported/min
CPM ([4]; sheet EDF2I, + NPA, Segment 2, single stems): 33 CPM and 25 CPM and 26 CPM and 39 CPM
CPM ([4]; sheet EDF2I, + NPA, Segment 3, single stems): 20 CPM and 21 CPM and 33 CPM and 30 CPM
CPM ([4]; sheet EDF2I, - NPA, Segment 1, single stems): 76 CPM and 115 CPM and 77 CPM and 107 CPM
CPM ([4]; sheet EDF2I, - NPA, Segment 2, single stems): 35 CPM and 37 CPM and 34 CPM and 29 CPM and 30 CPM
CPM ([4]; sheet EDF2I, - NPA, Segment 3, single stems): 29 CPM and 37 CPM and 35 CPM and 26 CPM and 28 CPM
transport in stem segments, lower than IAA transport ([4]; wild-type plants): about 20 fold

O=C(O)COc1ccc(Cl)cc1 [4-CPA, 4-chlorophenoxyacetic acid]
Imax (PIN8 S266A): 7 ± 2 nA
EC50 (PIN8 S266A): 2100 ± 290 µM
Imax (PIN8 Y150F): 5 ± 0.9 nA
EC50 (PIN8 Y150F): 710 ± 228 µM
inhibition at 5 µM (PIN8 [2]; 5 µM substrate, 100 µM NPA, individual sensors, read-out: Rel. Inhibition of NPA peak currents): 3.03%
inhibition at 20 µM (PIN8 [2]; 20 µM substrate, 100 µM NPA, individual sensors, read-out: Rel. Inhibition of NPA peak currents): 9.7%
inhibition at 50 µM (PIN8 [2]; 50 µM substrate, 100 µM NPA, individual sensors, read-out: Rel. Inhibition of NPA peak currents): 16%
inhibition at 100 µM (PIN8 [2]; 100 µM substrate, 100 µM NPA, individual sensors, read-out: Rel. Inhibition of NPA peak currents): 24.7%
inhibition at 500 µM (PIN8 [2]; 500 µM substrate, 100 µM NPA, individual sensors, read-out: Rel. Inhibition of NPA peak currents): 58.6%
inhibition at 1000 µM (PIN8 [2]; 1000 µM substrate, 100 µM NPA, individual sensors, read-out: Rel. Inhibition of NPA peak currents): 73.5%
inhibition at 2000 µM (PIN8 [2]; 2000 µM substrate, 100 µM NPA, individual sensors, read-out: Rel. Inhibition of NPA peak currents): 82.1%
inhibition at 5000 µM (PIN8 [2]; 5000 µM substrate, 100 µM NPA, individual sensors, read-out: Rel. Inhibition of NPA peak currents): 96.6%
lower binding affinity compared to IAA (PIN8 [2]; KD compared to IAA): ~ 8 fold
Kd (PIN8 [2]; [5]): 319 µM and 330 µM and 262 µM

O=C(O)Cc1c[nH]c2ccccc12 [IAA, indole-3-acetic acid]
CPM ([1]; sheet EDF2H, pin1, + NPA, Segment 2, single stems): 103 CPM and 109 CPM and 91 CPM and 134 CPM and 78 CPM
CPM ([1]; sheet EDF2H, pin1, + NPA, Segment 3, single stems): 70 CPM and 80 CPM and 98 CPM and 135 CPM and 76 CPM
CPM ([1]; sheet EDF2H, pin1, - NPA, Segment 3, single stems): 119 CPM and 97 CPM and 69 CPM and 107 CPM and 82 CPM
Imax (PIN8 S266A): 4 ± 0.6 nA
EC50 (PIN8 S266A): 578 ± 183 µM
Peak current (PIN8 S266A; 5 µM substrate): 0.2201 nA and 0.07526 nA and 0.1062 nA
Peak current (PIN8 S266A; 20 µM substrate): 0.3015 nA and 0.4448 nA and 0.2134 nA
Peak current (PIN8 S266A; 50 µM substrate): 0.4871 nA and 0.8571 nA and 0.3384 nA
Imax (PIN8 Y150F): 6 ± 2 nA
EC50 (PIN8 Y150F): 452 ± 32 µM
fold-change difference to the respective EC50 of wildtype PIN8 (PIN8 Y150F; Y150F, direction shown by colour only): ~ 2 fold
inhibition at 5 µM (PIN8 [2]; read-out: Rel. Inhibition of NPA peak currents, 5 µM substrate, 100 µM NPA, individual sensors): 14.1%
inhibition at 50 µM (PIN8 [2]; [6]): 57%
inhibition at 100 µM (PIN8 [2]; [7]): 77.9%
inhibition at 250 µM (PIN8 [2]; 100 µM NPA, individual sensors): 84.7%
inhibition at 500 µM (PIN8 [2]; [8]): 94.3%
inhibition at 1000 µM (PIN8 [2]; [9]): 84.7%
Kd (PIN8 [2]; sheet F2A (Fig. 2a, KD of substrate binding), individual sensors, read-out: Peak current): 38.8 µM and 54 µM and 24.3 µM
Rel. IAA transport rate (PIN8 [3]; NPA + (10 μM)): 0.4862 % exported/min and 0.4056 % exported/min and 0.4406 % exported/min
Rel. IAA transport rate (PIN8 [3]; NPA -): 2.069 % exported/min and 2.225 % exported/min and 1.917 % exported/min
CPM ([4]; sheet EDF2H, + NPA, Segment 1, single stems): 342 CPM and 190 CPM and 344 CPM and 366 CPM and 333 CPM
CPM ([4]; sheet EDF2H, + NPA, Segment 2, single stems): 98 CPM and 93 CPM and 124 CPM and 114 CPM
CPM ([4]; sheet EDF2H, + NPA, Segment 3, single stems): 125 CPM and 94 CPM and 137 CPM and 146 CPM and 104 CPM
CPM ([4]; sheet EDF2H, - NPA, Segment 3, single stems): 181 CPM and 109 CPM and 111 CPM and 125 CPM and 156 CPM
